According to patent US20160074380A1, “Treatment Of Neurodegenerative Diseases With Combination Of Laquinimod And Fingolimod” (TEVA PHARMACEUTICAL INDUSTRIES LTD., priority 2014, published 2016):
“And” between values parts separate entries of the source, which are not always exact repeats. Equal entries are not always repeated. Marks after values point to notes of the source that are not given here.

Columns and labels:
reactive astrocytes [1] = experiment: NO release in conditioned media from reactive astrocytes (ELISA); assay type: cell-based, mice; details: LPS+IFNγ
Method: (§1) Mice mixed glial cells were cultured as described by McCarthy et al., 1980. Primary mice glial cells were prepared from the cortical of newborn Swiss mice (1 day). Briefly, meninges and blood vessels of the mice cortex were removed and placed in ice-cold medium of L15 containing 2% of PS and 1% of BSA. Tissues were dissociated with 0.25% trypsin-EDTA at 37° C. for 10 min. Cells were then submitted to a supplementary incubation of 15 min at 37° C. in presence of deoxyribonuclease I (final concentration of 0.5 mg/mL). Cells were then pelleted (5 min at 1200 rpm) and trypsinization was stopped by adding DMEM supplemented with 10% FCS, 1 mM of Na/pyruvate (PanBiotech, ref: P04-43100, batch: 3470914) and 2% PS. Cells suspension was mechanically dissociated and filtered through 40 μm diameter nylon meshes (BD Falcon, Ref: 352340). The cells were collected by centrifugation at 1200 rpm/min for 10 min, re-suspended in culture medium and then plated in culture flasks (Dutscher, ref: 690175). Cells were seeded at a density of 1.25×10^5 cells/cm2 and cultured in 5% CO2 at 37° C. Medium was changed three times per week.
(§2) Purification of astrocytes cells was done as described by Kim et al., 2006. After 14 days, the flasks were shaken on a rotary shaker at 200 rpm for 3 h. The resulting cell suspension rich in microglia was removed. Cells remaining in the flasks from which microglia had been harvested correspond to astrocytes at a purity of about 90%. Astrocytes were cultured in DMEM supplemented with 10% FCS, 1 mM of Na/pyruvate and 2% at 5% CO2 and 37° C. in flasks of 25 cm2.
(§3) When reaching confluence, primary astroglial cells were first incubated for 2 hours with Fingolimod (1 nM, 10 nM) or Laquinimod (1 nM, 10 nM, 100 nM, 1 μM, 10 μM) alone or in co-incubation or control medium.
(§4) At the end of 2 hours treatment with test compounds, astrocyte culture was activated with serum-free DMEM containing LPS (100 ng/mL; Sigma, Serotype 026:B6, ref: L2654; batch: 123M4052V) and IFNγ (10 ng/mL; Peprotech; ref: 315-05; batch: 061398 L0513) for 6 hours (Kim and Lee, 2013; Shu et al., 2014; Gresa-Arribas et al., 2012) in absence or presence of test compounds.
(§5) To obtain LPS/INFγ free conditioned media (CM), after 6 hours, cells were washed twice with DMEM and medium was replaced with DMEM supplemented with B27 (2%), L-glutamine (2 mM), PS solution (2%). LCM was collected 24 hrs after. For control, cells were incubated with medium not containing LPS/INFγ. […]

reactive astrocytes [2] = experiment: CCL7 release in conditioned media from reactive astrocytes (ELISA); assay type: cell-based, mice; details: LPS+IFNγ
Method: as §1, §2, §3, §4, §5

reactive astrocytes [3] = experiment: IL-6 concentration in conditioned media from reactive astrocytes (cytometry); assay type: cell-based, mice; details: LPS+IFNγ
Method: as §1, §2, §3, §4, §5

reactive astrocytes [4] = experiment: GM-CSF concentration in conditioned media from reactive astrocytes (cytometry); assay type: cell-based, mice; details: LPS+IFNγ
Method: as §1, §2, §3, §4, §5

cortical neurons = experiment: Cortical neuron survival after 72 h with conditioned media from reactive astrocytes; assay type: cell-based, mice; details: conditioned media 72 h; for % cell survival: % of control
Method: Mice cortical neurons were cultured as described by Singer et al., 1999. Briefly pregnant female mice of 13 days gestation were killed by cervical dislocation (Mice Swiss; Janvier Lab). The foetuses were removed from the uterus. The cortexes were removed and placed in ice-cold medium of Leibovitz (L15, Panbiotech, ref: P04-27055, batch: 9310614) containing 2% of Penicillin 10.000 U/ml and Streptomycin 10 mg/ml (PS, Panbiotech, ref: P06-07100, batch: 8460514) and 1% of Bovine Serum Albumin (BSA, Panbiotech, Ref: P06-1391100, batch: H140603). Cortexes were dissociated by trypsin-EDTA (Panbiotech, Ref: P10-023100, batch: 3330914) for 20 min at 37° C. The reaction was stopped by the addition of Dulbecco's modified Eagle's Medium (DMEM, Panbiotech, Ref P04-03600, batch: 1300714) containing DNasel grade II (0.1 mg/ml, Panbiotech, ref: P60-37780100, batch: H140508) and 10% of Foetal Calf Serum (FCS, Invitrogen, ref: 10270-098, batch: 4103912K). Cells were then mechanically dissociated by 3 serial passages through a 10 ml pipette. Cells were then centrifuged at 515×g for 10 min at 4° C. The supernatant was discarded and the pellet of cells was re-suspended in a defined culture medium consisting of Neurobasal (Nb, Invitrogen, ref: 21103, batch: 1673148) supplemented with B27 (2%, Invitrogen, ref: 17504, batch: 1672731), L-glutamine (2 mM, Panbiotech, ref: P04-80100, batch: 6620314), 2% of PS solution and 10 ng/ml of Brain-derived neurotrophic factor (BDNF, PanBiotech, Ref: CB-1115002, Batch: 121027). Viable cells were counted in a Neubauer cytometer using the trypan blue exclusion test. The cells were seeded at a density of 30 000 cells/well in 96 well-plates pre-coated with poly-D-lysine (Greiner ref: 655930, batch: E140305F) and were cultured at +37° C. in a humidified air (95%)/CO2 (5%) atmosphere.
as §1, §2, §3
as §4, with “compounds. […]” for “compounds.”

[5] = tested on: astrocytic and microglial activation and acute axonal damage; details: cited from earlier work; for demyelination, astrocytic and microglial activation: Kim, 2011
[6] = Mus musculus, Astrocyte, 1 nM, read-out: % inhibition of IL-6 release
[7] = Mus musculus, Astrocyte, 10 nM, read-out: % inhibition of IL-6 release
[8] = Mus musculus, Astrocyte, 1 nM, read-out: % inhibition of GM-CSF release
[9] = Mus musculus, Astrocyte, 10 nM, read-out: % inhibition of GM-CSF release
[10] = Mus musculus, Astrocyte, 100 nM

For `CCCCCCCCc1ccc(CCC(N)(CO)CO)cc1` [Fingolimod], the NO content (reactive astrocytes [1]; 1 nM) was 24.39 pg/mL and 24.396 pg/mL, the NO content (reactive astrocytes [1]; 10 nM) was 17.37 pg/mL and 17.371 pg/mL and the inhibition at 0.001 µM (reactive astrocytes [1]; Mus musculus, Astrocyte, 1 nM) was 43.7%. The inhibition at 0.01 µM (reactive astrocytes [1]; Mus musculus, Astrocyte, 10 nM) was 59.9%, the CCL-7 content (reactive astrocytes [2]; 1 nM) was 24.396 pg/mL and the inhibition at 0.001 µM (reactive astrocytes [2]; Mus musculus, Astrocyte, 1 nM) was 43.7%. The inhibition at 0.01 µM (reactive astrocytes [2]; Mus musculus, Astrocyte, 10 nM) was 59.9%, the IL-6 content (reactive astrocytes [3]; 1 nM) was 5421 pg/mL and the IL-6 content (reactive astrocytes [3]; 10 nM) was 4744 pg/mL. It also gave an inhibition at 0.001 µM (reactive astrocytes [3]; [6]) of 23.3%, an inhibition at 0.01 µM (reactive astrocytes [3]; [7]) of 32.9% and a GM-CSF content (reactive astrocytes [4]; 1 nM) of 204.09 pg/mL. The GM-CSF content (reactive astrocytes [4]; 10 nM) was 147.56 pg/mL, the GM-CSF release (reactive astrocytes [4]; 10 nM) was 148 pg/mL and the inhibition at 0.001 µM (reactive astrocytes [4]; [8]) was 16%. For the same compound, the inhibition at 0.01 µM (reactive astrocytes [4]; [9]) was 39.2%, the “% cell survival” value (cortical neurons; 1 nM) was 80% and the “% cell death” value (cortical neurons; 1 nM) was 20%. The “% inhibition of cortical neuron cell death” value (“% inhibition” below) (cortical neurons; 1 nM) was 41.2%, the “% cell survival” value (cortical neurons; 10 nM) was 85% and the “% cell death” value (cortical neurons; 10 nM) was 15%. The “% inhibition” value (cortical neurons; 10 nM) was 55.9* % and the “demyelination, astrocytic and microglial activation” value [5] was “partial response”.

With `CCN(C(=O)c1c(O)c2c(Cl)cccc2n(C)c1=O)c1ccccc1` [Laquinimod] the NO content (reactive astrocytes [1]; 1 nM) was 26.44 pg/mL and 26.447 pg/mL, the NO content (reactive astrocytes [1]; 10 nM) was 21.1 pg/mL and 21.093 pg/mL and the NO content (reactive astrocytes [1]; 100 nM) was 17.98 pg/mL and 17.983 pg/mL. The NO content (reactive astrocytes [1]; 1 μM) was 16.11 pg/mL and 16.111 pg/mL, the inhibition at 0.001 µM (reactive astrocytes [1]; Mus musculus, Astrocyte, 1 nM) was 39% and the inhibition at 0.01 µM (reactive astrocytes [1]; Mus musculus, Astrocyte, 10 nM) was 51.3%. It also gave an inhibition at 0.1 µM (reactive astrocytes [1]; [10]) of 58.5%, an inhibition at 1 µM (reactive astrocytes [1]; Mus musculus, Astrocyte, 1 μM) of 62.8% and a CCL-7 content (reactive astrocytes [2]; 1 nM) of 26.447 pg/mL. The CCL-7 content (reactive astrocytes [2]; 10 nM) was 21.093 pg/mL, the inhibition at 0.001 µM (reactive astrocytes [2]; Mus musculus, Astrocyte, 1 nM) was 39% and the inhibition at 0.01 µM (reactive astrocytes [2]; Mus musculus, Astrocyte, 10 nM) was 51.3%. For the same compound, the inhibition at 0.1 µM (reactive astrocytes [2]; [10]) was 58.5%, the inhibition at 1 µM (reactive astrocytes [2]; Mus musculus, Astrocyte, 1 μM) was 62.8% and the IL-6 content (reactive astrocytes [3]; 1 nM) was 6198 pg/mL. The IL-6 content (reactive astrocytes [3]; 10 nM) was 6315 pg/mL, the IL-6 content (reactive astrocytes [3]; 1 μM) was 2640 pg/mL and the inhibition at 0.001 µM (reactive astrocytes [3]; [6]) was 12.3%. It also gave an inhibition at 0.01 µM (reactive astrocytes [3]; [7]) of 10.6%, an inhibition at 1 µM (reactive astrocytes [3]; Mus musculus, Astrocyte, 1 μM, read-out: % inhibition of IL-6 release) of 62.6% and a GM-CSF content (reactive astrocytes [4]; 1 nM) of 207.71 pg/mL. The GM-CSF content (reactive astrocytes [4]; 10 nM) was 209.51 pg/mL, the GM-CSF content (reactive astrocytes [4]; 100 nM) was 179.39 pg/mL and the GM-CSF content (reactive astrocytes [4]; 1 μM) was 154 pg/mL and 154.26 pg/mL. The inhibition at 0.001 µM (reactive astrocytes [4]; [8]) was 14.5%, the inhibition at 0.01 µM (reactive astrocytes [4]; [9]) was 13.7% and the inhibition at 0.1 µM (reactive astrocytes [4]; Mus musculus, Astrocyte, 100 nM, read-out: % inhibition of GM-CSF release) was 26.1%. The inhibition at 1 µM (reactive astrocytes [4]; Mus musculus, Astrocyte, 1 μM, read-out: % inhibition of GM-CSF release) was 36.5%, the “% cell survival” value (cortical neurons; 1 nM) was 73% and the “% cell death” value (cortical neurons; 1 nM) was 27%. The “% inhibition” value (cortical neurons; 1 nM) was 20.6* %, the “% cell survival” value (cortical neurons; 10 nM) was 80% and the “% cell death” value (cortical neurons; 10 nM) was 20%. The “% inhibition” value (cortical neurons; 10 nM) was 41.2%, the “% cell survival” value (cortical neurons; 100 nM) was 83% and the “% cell death” value (cortical neurons; 100 nM) was 17%. For the same compound, the “% inhibition” value (cortical neurons; 100 nM) was 50.0%, the “% cell survival” value (cortical neurons; 1 μM) was 92% and the “% cell death” value (cortical neurons; 1 μM) was 8%. The “% inhibition” value (cortical neurons; 1 μM) was 76.5%, the acute axonal damage ([5]; Brück, 2012) was “reduces it completely” and the “demyelination, astrocytic and microglial activation” value [5] was “partial response”.
